Measurements: patent US11951197B2, “Use of volatile compounds to modulate the perception of floral muguet” (FIRMENICH SA, priority 2018, dated 2024)

Legend:
Type in all cases: cell-based
[1] = molecular target: T1, OR10J5 olfactory receptor (Homo sapiens, UniProt Q8NHC4); experiment: Single-point binary mixture enhancement screen (LYRAL® at about EC20 + test compound), cAMP HTRF; conditions: binary mixture of 4.6 μM LYRAL® and 300 μM test compound, HEK293T
T1 construct: Flag; Rho (rhodopsin-derived tag); expressed in transfected cells
T1 sequence (Q8NHC4 1-309): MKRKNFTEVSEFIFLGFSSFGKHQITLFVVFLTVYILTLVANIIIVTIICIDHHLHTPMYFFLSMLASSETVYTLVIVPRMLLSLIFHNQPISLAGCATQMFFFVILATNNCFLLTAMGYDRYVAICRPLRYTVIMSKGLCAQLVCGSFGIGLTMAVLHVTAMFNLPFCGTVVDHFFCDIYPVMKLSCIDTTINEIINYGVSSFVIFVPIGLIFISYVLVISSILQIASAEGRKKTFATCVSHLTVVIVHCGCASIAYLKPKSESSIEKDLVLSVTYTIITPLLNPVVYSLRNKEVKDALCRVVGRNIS
Procedure: A dose response curve showing the activation of OR10J5 in response to the floral muguet compound 3-(4-hydroxy-4-methylpentyl)cyclohex-3-ene-1-carbaldehyde, 4-(4-hydroxy-4-methylpentyl)cyclohex-3-ene-1-carbaldehyde or a mixture thereof (sold under the tradename LYRAL®, hereinafter referred to as “LYRAL®”) is shown in FIG. 1. Using a cell-based assay, OR10J5 activity was tested in a HEK293T cell line wherein the endogenous chaperone RTP1 gene has been activated and the odorant receptor chaperone was expressed according to the methods disclosed in International Patent Application Publication No. WO2016/201153 A1. […]
A library of volatile compounds was used to create binary mixtures of each compound with LYRAL® at approximately EC20, a concentration eliciting only approximately 20% of full activity level of OR10J5 by itself. […] Single binary mixture-induced receptor activity was detected by measuring the cAMP increase in the cytosol using an HTRF (Homogenous Time-Resolved Fluorescence unit) based kit (CisBio, cAMP dynamic 2 kit, 62AM4PEJ). […]
The resulting activation was then measured and compared to LYRAL® alone (defining the baseline of the enhancement assay). The quality of the HTS process was determined and the window variability and signal reliability were assessed by calculating the Z′ value of each plate. […]

[2] = molecular target: T1, OR10J5 olfactory receptor; experiment: Dose-response confirmation of enhancer candidates, alone and with EC20 LYRAL®; conditions: response to LYRAL® raised beyond EC20 without measurable intrinsic activity
Procedure: (§1) A dose response curve showing the activation of OR10J5 in response to the floral muguet compound 3-(4-hydroxy-4-methylpentyl)cyclohex-3-ene-1-carbaldehyde, 4-(4-hydroxy-4-methylpentyl)cyclohex-3-ene-1-carbaldehyde or a mixture thereof (sold under the tradename LYRAL®, hereinafter referred to as “LYRAL®”) is shown in FIG. 1. Using a cell-based assay, OR10J5 activity was tested in a HEK293T cell line wherein the endogenous chaperone RTP1 gene has been activated and the odorant receptor chaperone was expressed according to the methods disclosed in International Patent Application Publication No. WO2016/201153 A1. The Flag-Rho-tagged receptor was co-transfected with the olfactory canonical G-protein Golf and was exposed to a binary mixture of a single concentration of LYRAL® and a test compound.
A library of volatile compounds was used to create binary mixtures of each compound with LYRAL® at approximately EC20, a concentration eliciting only approximately 20% of full activity level of OR10J5 by itself. An activation cell-based assay was used for the initial enhancer candidate identification as disclosed in WO2019122236. Single binary mixture-induced receptor activity was detected by measuring the cAMP increase in the cytosol using an HTRF (Homogenous Time-Resolved Fluorescence unit) based kit (CisBio, cAMP dynamic 2 kit, 62AM4PEJ).
The 37 candidates remaining in Table 2 were identified and were tested in two parallel dose-response experiments to confirm the true enhancement properties of the potential candidates. First, a dose-response of each individual candidate was performed to determine if it was an agonist by itself. Second, the same candidate dose-response curve in the presence of EC20 LYRAL® concentration (generating 20% activity on OR10J5) was assessed for activity level increase.

OR10J5 [3] = molecular target: T2, OR10J5 (Homo sapiens, UniProt Q8NHC4); experiment: LYRAL® dose-response with serial enhancer concentrations, allosteric EC50 shift model; conditions: for α (cooperativity factor): enhancer 0 to 600 μM, allosteric EC50 shift equation (Prism7), α>1 indicates positive allosteric modulation; for Kb: read-out: KB (equilibrium dissociation constant of the enhancer)
T2 construct: Flag; Rho (rhodopsin-derived tag); expressed in transfected cells
T2 sequence (Q8NHC4 1-309): T1 sequence (Q8NHC4 1-309)
Procedure: Functional dose-response experiments were performed to reveal the allosteric nature of the interaction between 3-(1,3-benzodioxol-5-yl)-2-methylpropanal, 3-(4-methylcyclohex-3-en-1-yl)butanal, 2,6-dimethylhept-5-enal and heptanal and OR10J5. The level of enhancement of OR10J5's activation was evaluated at distinct concentrations of each enhancer. Using the same cell-based assay described earlier, dose response curves of OR10J5 to LYRAL® in the presence of serial concentrations of the enhancers spanning from 0 to 600 μM were performed, see FIG. 5. The curves were obtained by applying the simplified Allosteric EC50 shift effect equation (available in Prism7) derived from the ternary complex interaction model. The enhancement levels recorded were not linearly dependent on the concentration of the enhancer, and the following key parameters values for α (the cooperativity factor) and KB (the equilibrium dissociation constant of the enhancer) were obtained from the model for each enhancer: 3-(1,3-benzodioxol-5-yl)-2-methylpropanal, α=6.3 and KB=10 μM; 3-(4-methylcyclohex-3-en-1-yl)butanal, α=7.5 and KB=15 μM; 2,6-dimethylhept-5-enal, α=4.1 and KB=16 μM; and heptanal; α=3.2 and KB=51 μM. α>1 is indicative of positive allosteric modulation.

[4] = molecular target: T1, OR10J5 olfactory receptor; experiment: Inhibition of LYRAL® (EC80)-induced receptor activity, screen and dose-response; conditions: dose-response in the presence of EC80 LYRAL®
Procedure: Using the same cell-based assay described herein, OR10J5 activity inhibition was tested with binary mixtures of LYRAL® and a test compound. Volatile compounds were used to create binary mixtures of each compound with LYRAL® at approximately EC80, a concentration eliciting approximately 80% of full activity level of OR10J5 by itself. An activation cell-based assay was used for the initial inhibitor candidate identification as disclosed in WO2019101813.
The binary mixtures were created by mixing a LYRAL® stock solution with a stock solution of each test compound to a final concentration XXX and 300 μM, respectively. Stock solutions were made of compounds dissolved in pure DMSO. Each mixture was presented to a cell line expressing the OR10J5 olfactory receptor. Similar to the enhancement screening conditions, the final concentration of DMSO in each binary mixture was 0.1%, and had no visible effect on the cells. The resulting activation was measured and compared to LYRAL® alone (defining the activity baseline of the assay, ˜EC80). […] The quality of the HTS process was determined and the window (activity range between EC80 and the DMSO baseline) variability and signal reliability were assessed by calculating the Z′ value of each plate.
Candidate inhibitors identified were tested in a dose-response inhibition experiments to confirm the inhibition properties of the potential candidates. The dose-response curve in the presence of EC80 LYRAL® concentration (generating 80% activity on OR10J5) was assessed for dose-dependent activity level decrease. […] Both potency and efficacy of the confirmed inhibitors were evaluated by calculating their half-maximal inhibition concentration (IC50) relative to EC80 LYRAL and the amount of inhibition (Span), respectively. The IC50 values indicate the inhibition level with respect to the potency. The Span values indicate the inhibition level with respect to the inhibition efficacy. The IC50 values are used to rank order the compounds from strongest to weakest inhibitors of OR10J5 (FIG. 9a-d).

OR10J5 [5] = molecular target: T2, OR10J5; experiment: LYRAL® dose-response with a steady concentration of test compound (EC50-fold shift); conditions: LYRAL® + steady concentration of compound vs LYRAL® alone
Procedure: as §1
(§2) LYRAL® enhancement specificity was tested on compounds that were structurally similar to enhancers identified. Dose response curves to LYRAL® were obtained in the presence of a steady concentration of a test compound and compared to a dose-response curve of LYRAL® alone. The resulting enhancement was quantified by means of EC50-fold shift (potency increase) and the efficacy span ratio (efficacy increase).
The EC50-fold shift was obtained by dividing the EC50 of LYRAL®+compound by the reference EC50 of LYRAL® alone. […]

Olfr16 = molecular target: T3, Olfr16 (Mus musculus, UniProt Q62007); experiment: as above; conditions: Olfr16 (mouse ortholog); LYRAL® + steady concentration of compound vs LYRAL® alone
T3 construct: expressed in transfected cells
T3 sequence (Q62007 1-309): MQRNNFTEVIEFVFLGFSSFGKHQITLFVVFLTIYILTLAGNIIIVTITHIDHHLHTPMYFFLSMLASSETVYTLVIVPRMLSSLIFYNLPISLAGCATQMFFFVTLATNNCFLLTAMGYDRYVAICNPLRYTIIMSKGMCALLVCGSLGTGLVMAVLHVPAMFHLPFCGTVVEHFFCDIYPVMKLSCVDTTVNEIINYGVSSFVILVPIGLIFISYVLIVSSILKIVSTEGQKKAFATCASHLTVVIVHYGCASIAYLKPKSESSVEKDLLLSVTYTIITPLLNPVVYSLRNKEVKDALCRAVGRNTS
Procedure: as §2
The EC50-fold shift was obtained by dividing the EC50 of LYRAL®+compound by the reference EC50 of LYRAL® alone. The span ratio was obtained by dividing the span of LYRAL®+compound by the reference span of LYRAL® alone.

OR10J5 [6] = molecular target: T2, OR10J5; experiment: (+−)-2,5-dimethyl-2-indanmethanol dose-response with a steady concentration of test compound
Procedure: OR10J5 activity enhancement was tested with an additional agonist and with one of the test compounds and conditions described in the Examples above. Dose response curves to (+−)-2,5-dimethyl-2-indanmethanol was obtained in the presence of a steady concentration of the test compound and compared to a dose-response curve of the agonist alone. The resulting enhancement was quantified by means of EC50-fold shift (potency increase) and the efficacy span ratio (efficacy increase) as described above.

C[C@@H]1C/C=C\CCCCCCCCCC(=O)C1 [compound 2]
OR10J5 olfactory receptor agonists among screen hits [1]: agonists

CC(C)=CCCC(C)C=O (racemic) [2,6-dimethylhept-5-enal]
enhancement of OR10J5 LYRAL® activation (true enhancer) [2]: potent enhancement
α (cooperativity factor) (OR10J5 [3]): 4.1
Kb (OR10J5 [3]): 16 µM

CCCCCCC/C=C/C=O [(E)-dec-2-enal]
enhancement of OR10J5 LYRAL® activation (true enhancer) [2]: potent enhancement

CCCCCCCC=O [octanal]
enhancement of OR10J5 LYRAL® activation (true enhancer) [2]: potent enhancement

Cc1cccc(C=O)c1 [3-methylbenzaldehyde]
enhancement of OR10J5 LYRAL® activation (true enhancer) [2]: potent enhancement

CCCCCC=O [hexanal]
enhancement of OR10J5 LYRAL® activation (true enhancer) [2]: potent enhancement

CC(C)=CCC[C@@H](C)CC=O [(3R)-3,7-dimethyloct-6-enal]
enhancement of OR10J5 LYRAL® activation (true enhancer) [2]: potent enhancement

CC(C=O)c1ccccc1 (centres unmarked) [2-phenylpropanal]
enhancement of OR10J5 LYRAL® activation (true enhancer) [2]: potent enhancement

CCCc1ccc2c(c1)OCC(=O)CO2 [7-propyl-2H,4H-1,5-benzodioxepin-3-one]
inhibition of the OR10J5 response to LYRAL® [4]: decreased the response

O=Cc1ccc2c(c1)OCO2 [benzo[d][1,3]dioxole-5-carbaldehyde, reference compound]
EC50 fold shift of LYRAL® (potency increase) (OR10J5 [5]): 1.8 fold
EC50 fold shift of LYRAL® (potency increase) (Olfr16): 1.5 fold
EC50 fold shift of (+−)-2,5-dimethyl-2-indanmethanol (OR10J5 [6]; OR10J5, agonist + steady concentration of compound vs agonist alone): 2.0 fold

COC(=O)c1ccccc1/N=C/c1ccccc1 [compound 15]
OR10J5 olfactory receptor agonists among screen hits [1]: agonists

CCOC(=O)C(=O)C(C)CC (racemic) [(+−)-ethyl 3-methyl-2-oxopentanoate]
inhibition of the OR10J5 response to LYRAL® [4]: decreased the response

CCCCCC/C=C/C=O [(E)-non-2-enal]
enhancement of OR10J5 LYRAL® activation (true enhancer) [2]: potent enhancement

CCc1ccc(C=O)cc1 [4-ethylbenzaldehyde]
enhancement of OR10J5 LYRAL® activation (true enhancer) [2]: potent enhancement

3,5,6-Trimethyl-3-Cyclohexene-1-Carbaldehyde + 2,4,6-Trimethyl-3-Cyclohexene-1-Carbaldehyde
enhancement of OR10J5 LYRAL® activation (true enhancer) [2]: potent enhancement

CC(C)c1ccc(C=O)cc1 [4-Propan-2-ylbenzaldehyde]
enhancement of OR10J5 LYRAL® activation (true enhancer) [2]: potent enhancement

CC1=CC(C)C(C=O)C(C)C1 (centres unmarked) [2,4,6-trimethyl-3-cyclohexene-1-carbaldehyde]
enhancement of OR10J5 LYRAL® activation (true enhancer) [2]: potent enhancement

COC(C)(C)CCCC(C)C=O (racemic) [6-methoxy-2,6-dimethylheptanal]
enhancement of OR10J5 LYRAL® activation (true enhancer) [2]: potent enhancement

(+−)-3-(4-Methyl-3-penten-1-yl)-3-cyclohexene-1-carbaldehyde + (+−)-4-(4-Methyl-3-penten-1-yl)-3-cyclohexene-1-carbaldehyde
enhancement of OR10J5 LYRAL® activation (true enhancer) [2]: potent enhancement

O=Cc1ccccc1 [benzaldehyde]
enhancement of OR10J5 LYRAL® activation (true enhancer) [2]: potent enhancement

C=C1CC[C@@H]2O[C@]2(C)CC[C@@H]2[C@@H]1CC2(C)C [(−)-(1R,4R,6S,10S)-4,12,12-trimethyl-9-methylene-5-oxatricyclo[8.2.0.0^4,6]dodecane]
inhibition of the OR10J5 response to LYRAL® [4]: decreased the response

CC1=CCCC2(C)OC2CCC(C)=CCC1 (centres unmarked) [trimethyl-13-oxabicyclo-[10.1.0]-trideca-4,8-diene]
inhibition of the OR10J5 response to LYRAL® [4]: decreased the response

CCCCCCC=O [heptanal]
enhancement of OR10J5 LYRAL® activation (true enhancer) [2]: potent enhancement
α (cooperativity factor) (OR10J5 [3]): 3.2
Kb (OR10J5 [3]): 51 µM

Cc1ccc2c(c1)CC(C)(CO)C2 (racemic) [(+−)-2,5-dimethyl-2-indanmethanol, reference compound]
agonist character at OR10J5 (OR10J5 [6]): partial agonist

C/C=C/C=O [(E)-but-2-enal]
enhancement of OR10J5 LYRAL® activation (true enhancer) [2]: potent enhancement

Cc1ccc(CC(C)C=O)cc1 (racemic) [2-methyl-3-(4-methylphenyl)propanal]
enhancement of OR10J5 LYRAL® activation (true enhancer) [2]: potent enhancement
